Legend:
[1] = tested on: NBD1; conditions: cited from earlier work
[2] = target: T1, ΔF508-NBD1 (Mus musculus, UniProt P26361, DEL508-508); assay: SPR direct binding to sensor chip-immobilized ΔF508-NBD1; set-up: species or system murine; conditions: for binding to ΔF508-NBD1 (SPR): increasing concentrations injected over immobilized ΔF508-NBD1; for Kd / RU of ligand bound to ΔF508-NBD1 at equilibrium (maximal RU): SPR; for Kd: Scatchard's plot analysis of equilibrium binding data, mean ± S.D. of two-three analyses, PBS, 0.05% P20, 5% DMSO, pH 7.4, 25 °C; for RU of ligand bound to ΔF508-NBD1 at equilibrium (maximal RU): mean ± s.d. of two-three separate analyses
T1 construct: Murine WT NBD1 and ΔF508-NBD1 were obtained from CFTR Folding Consortium; purchased CFTR Folding Consortium (obtained, not a commercial vendor)
Protocol: SPR measurements were performed on a BIAcore X-100 instrument (GE-Healthcare, Milwaukee, WI, USA), using research-grade CM5 carboxyl-methyl-dextran–coated sensor chips (GE-Healthcare). The murine ΔF508-NBD1 was resuspended at 20 µg/mL in 10 mM sodium acetate pH 4.0 and allowed to react with the first flow cell of a CM5 sensor chip pre-activated with 50 μL of 0.2 M EDC and 0.05 M NHS and deactivated by injection of HCl–ethanolamine. This procedure led to the immobilization of 11,000 RU, equal to approximately 400 fmol/mm^2 of protein. Similar results were obtained for the injection of BSA (20 µg/mL) onto the second flow cell of each sensor chip, used as a negative control and for blank subtraction. The appropriate immobilization of ΔF508-NBD1 was checked by injecting increasing concentrations of K8 in PBS, 0.05% surfactant P20 and 5% DMSO, pH 7.4 over the sensor chip for 90 s at 10 μL/min, 25 °C and then washed until dissociation was observed. The inclusion of 5% DMSO in the running buffer (not necessary for protein-protein interaction analysis) and the short association time were chosen to validate ΔF508-NBD1 binding availability in the experimental conditions used for the subsequent analysis of the compounds (see below).
For the evaluation of their capacity to directly bind to ΔF508-NBD1, increasing concentrations of the various compounds of the data-set were resuspended in PBS, 0.05% surfactant P20 and 5% DMSO, pH 7.4, injected over ΔF508-NBD1 or BSA surfaces for 90 s at 10 μL/min, 25 °C and then washed until dissociation was observed. Steady state analysis were performed by fitting the proper form of Scatchard’s equation for the plot of the bound RU at equilibrium versus the compound concentration in solution. When saturation binding was reached, Kd values were calculated. In the case no saturation could be reached due the limited solubility of the compound under test, the software provided a Kd value expected on the bases of the curve’s trend.

[3] = target: T2, ΔF508-NBD1/K8 interaction (Mus musculus, UniProt P26361, DEL508-508); assay: SPR competition assay: ΔF508-NBD1 binding to immobilized K8 in the presence of compounds; set-up: species or system murine; conditions: ΔF508-NBD1 600 nM, compound 500 μM; for ΔF508-NBD1 bound to immobilized K8 at equilibrium in the presence of compound: 5% DMSO, ΔF508-NBD1 alone 35 RU
T2 construct: Murine WT NBD1 and ΔF508-NBD1 were obtained from CFTR Folding Consortium; purchased ΔF508-NBD1: CFTR Folding Consortium (obtained); K8: Pro-Spec-Tany TechnoGene Ltd
Protocol: K8 was used since, as a representative ΔF508-CFTR chaperones, has been repeatedly used for SPR studies and its binding site in ΔF508-CFTR has been mapped. To perform competition assays for the binding to ΔF508-NBD1 between the various compounds and K8, the latter was resuspended at 20 µg/mL in 10 mM sodium acetate pH 4.0 and allowed to react with the first flow cell of a CM5 sensor chip pre-activated with 50 μL of 0.2 M EDC and 0.05 M NHS and deactivated by injection of HCl–ethanolamine. This procedure led to the immobilization of 7800 RU of the protein, (equal to approximately 146 fmol/mm^2). Similar results were obtained for the injection of BSA (10 μg/mL) onto the second flow cell of each sensor chip, that was then used as a negative control and for blank subtraction. ΔF508-NBD1 (at 600 nM) in the absence or in the presence of the various compounds (all at 500 μM) in 0.05% surfactant P20 and 5% DMSO, pH 7.4, was injected over the K8 or BSA surfaces for 90 s at 10 μL/min, 25 °C and then washed until dissociation was observed.

[4] = target: T3, K8/ΔF508-NBD1 interaction (Mus musculus, UniProt P26361, DEL508-508); assay: SPR injection of compounds onto K8-saturated ΔF508-NBD1 surface; format: binding, murine; conditions: compounds at 150 μM; K8 1 µM saturating
T3 construct: Murine WT NBD1 and ΔF508-NBD1 were obtained from CFTR Folding Consortium; purchased ΔF508-NBD1: CFTR Folding Consortium (obtained); K8: Pro-Spec-Tany TechnoGene Ltd
Protocol: In a further series of experiments, a saturating amount of K8 (1 µM) was injected on the ΔF508-NBD1 surface and allowed to reach an equilibrium binding. Then, the various compounds of the data-set (150 µM) were injected and their capacity to affect the binding of K8 to ΔF508-NBD1 evaluated.

T3 sequence (P26361 with tags, fused parts or gaps DEL508-508 limits assumed): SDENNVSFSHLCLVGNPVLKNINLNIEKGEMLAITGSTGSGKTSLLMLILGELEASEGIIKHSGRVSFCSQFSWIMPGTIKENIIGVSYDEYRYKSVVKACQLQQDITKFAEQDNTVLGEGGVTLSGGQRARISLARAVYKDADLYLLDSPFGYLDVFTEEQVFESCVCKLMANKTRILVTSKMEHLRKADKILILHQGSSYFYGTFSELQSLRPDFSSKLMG
T1 sequence (P26361 with tags, fused parts or gaps DEL508-508 limits assumed): as above
T2 sequence (P26361 with tags, fused parts or gaps DEL508-508 limits assumed): as above

| Molecule | binding to ΔF508-NBD1 (SPR) [2] | Kd [2] [µM] | RU of ligand bound to ΔF508-NBD1 at equilibrium (maximal RU) [2] [RU] | effect of compound injection on K8-saturated ΔF508-NBD1 surface [4] | also measured |
| --- | --- | --- | --- | --- | --- |
| COc1ccc(Cl)cc1Nc1nc(-c2sc(NC(=O)c3ccccc3)nc2C)cs1 [C4a, reference compound] | do not bind |  |  |  | binding to NBD1 [1]: does not bind to NBD1 |
| CSc1cccc(Nc2nc(-c3ccc(Br)cc3)cs2)c1 [Compound 4] |  | 99.3 ± 14.5 | 32.0 ± 4.2 | inability of compounds 4 and 6 to alter the binding of K8 | inhibition at 500 µM [3]: 50% |
| CSc1cccc(Nc2nc(-c3cccc(Cl)c3)cs2)c1 [Compound 5] |  | 40.3 ± 2.5 | 13.0 ± 1.4 | increase of bound RU | ΔF508-NBD1 bound to immobilized K8 at equilibrium in the presence of compound [3]: 45 RU |
| CSc1cccc(Nc2nc(-c3ccc4[nH]c(=O)oc4c3)cs2)c1 [Compound 6] |  | 198 ± 4.5 | 114.0 ± 5.6 | inability of compounds 4 and 6 to alter the binding of K8 | effect on the ΔF508-NBD1/K8 interaction [3]: ineffective |
| CSc1cccc(Nc2nc(-c3coc4ccccc34)cs2)c1 [Compound 7] | do not bind |  | 0 to 4 |  |  |
| CC(C)(C)c1cc(C(C)(C)C)c(NC(=O)c2c[nH]c3ccccc3c2=O)cc1O [VX770, Ivacaftor, reference compound] | do not bind |  |  |  | binding to NBD1 [1]: does not bind to NBD1 |
| Cc1ccc(NC(=O)C2(c3ccc4c(c3)OC(F)(F)O4)CC2)nc1-c1cccc(C(=O)O)c1 [VX809, Lumacaftor, reference compound] |  | 24.2 ± 6.2 | 163.7 ± 23.7 | increase of bound RU | ΔF508-NBD1 bound to immobilized K8 at equilibrium in the presence of compound [3]: 68 RU |
| K8: keratin 8, known CFTR chaperone, purchased recombinant protein (protein, UniProt P05787 1-483, looked up) Keratin, type II cytoskeletal …: MSIRVTQKSYKVSTSGPRAFSSRSYTSGPGSRISSSSFSRVGSSNFRGGLGGGYGGASGMGGITAVTVNQSLLSPLVLEVDPNIQAVRTQEKEQIKTLNNKFASFIDKVRFLEQQNKMLETKWSLLQQQKTARSNMDNMFESYINNLRRQLETLGQEKLKLEAELGNMQGLVEDFKNKYEDEINKRTEMENEFVLIKKDVDEAYMNKVELESRLEGLTDEINFLRQLYEEEIRELQSQISDTSVVLSMDNSRSLDMDSIIAEVKAQYEDIANRSRAEAESMYQIKYEELQSLAGKHGDDLRRTKTEISEMNRNISRLQAEIEGLKGQRASLEAAIADAEQRGELAIKDANAKLSELEAALQRAKQDMARQLREYQELMNVKLALDIEIATYRKLLEGEESRLESGMQNMSIHTKTTSGYAGGLSSAYGGLTSPGLSYSLGSSFGSGAGSSSFSRTSSSRAVVVKKIETRDGKLVSESSDVLPK |  |  |  |  | binding of K8 to immobilized ΔF508-NBD1 ([2]; K8 600 nM, BSA surface as negative control): specifically binds |
